Here are results for two compounds from patent US20070275977A1, “N-OXIDES OF PYRIDYLMETHYL -PIPERAZINE AND -PIPERIDINE DERIVATIVES” (priority 2006, published 2007).

The target of data set [1] is Dopamine-D1 (Homo sapiens, UniProt P21728). Description: In vitro receptor affinity, Dopamine-D1. It is filed as binding. Conditions: radioligand [3H]-SCH 23390, read-out: K1 (in vitro receptor affinity). As to the method: (§1) ln vitro affinity for neurotransmitter receptors: The binding data collected below were either obtained by CE REP (128, rue Danton, 92500 Rueil-Malmaison, France) or at Solvay Pharmaceuticals B.V. (C. J. van Houtenlaan 36, 1381 CP Weesp, The Netherlands), using well documented standard procedures. The affinities for dopamine-D2 and 5-HT1A receptors for instance, were measured as described by Creese (1997) and Gozlan (1983) respectively.

Data set [2] deals with T1, Serotonin-5-HT1A (Homo sapiens, UniProt P08908).
T1 sequence (P08908 1-422): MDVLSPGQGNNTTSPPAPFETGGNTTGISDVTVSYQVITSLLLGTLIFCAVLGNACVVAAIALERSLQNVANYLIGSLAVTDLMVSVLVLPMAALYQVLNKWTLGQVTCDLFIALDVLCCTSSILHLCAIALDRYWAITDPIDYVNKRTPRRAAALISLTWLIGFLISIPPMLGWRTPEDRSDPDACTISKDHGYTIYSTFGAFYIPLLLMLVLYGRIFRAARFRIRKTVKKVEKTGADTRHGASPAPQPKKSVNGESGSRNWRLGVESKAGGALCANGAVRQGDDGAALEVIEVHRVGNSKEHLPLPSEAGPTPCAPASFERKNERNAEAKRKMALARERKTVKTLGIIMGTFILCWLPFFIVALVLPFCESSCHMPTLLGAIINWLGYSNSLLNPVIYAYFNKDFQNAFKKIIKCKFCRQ
Description: In vitro receptor affinity, Serotonin-5-HT1A. It is filed as binding. Conditions: radioligand [3H]-8-OH-DPAT, read-out: K1 (in vitro receptor affinity). The method, then: as §1

Data set [3] concerns the target Serotonin-5-HT2A (Homo sapiens, UniProt P28223). Description: In vitro receptor affinity, Serotonin-5-HT2A. In kind it is binding. Conditions: radioligand [3H]-ketanserin, read-out: K1 (in vitro receptor affinity). The method, then: as §1
Data set [4] concerns the target Serotonin-5-HT2C (Homo sapiens, UniProt P28335). Briefly: In vitro receptor affinity, Serotonin-5-HT2C. Conditions: radioligand [125I]-DOI, read-out: K1 (in vitro receptor affinity). In kind it is binding. The method, then: as §1
The target in data set [5] is Serotonin-5-HT3 (Rattus norvegicus, UniProt P35563). Description: In vitro receptor affinity, Serotonin-5-HT3. Conditions: radioligand [3H]-GR 38032F, read-out: K1 (in vitro receptor affinity). It is filed as binding. As to the method: as §1
For data set [6], the target named is Serotonin-5-HT4 (Homo sapiens, UniProt Q13639). Briefly: In vitro receptor affinity, Serotonin-5-HT4. Conditions: radioligand [3H]-GR 113808, read-out: K1 (in vitro receptor affinity). It is filed as binding. As to the method: as §1
Data set [7] concerns the target Serotonin-5-HT6 (Homo sapiens, UniProt P50406). Description: In vitro receptor affinity, Serotonin-5-HT6. Conditions: radioligand [3H]-LSD, read-out: K1 (in vitro receptor affinity). It is filed as binding. The method, then: as §1
The target in data set [8] is 5-HT reuptake (Homo sapiens, UniProt P31645). Description: In vitro receptor affinity, 5-HT reuptake. It is filed as binding. Conditions: radioligand [3H]-paroxetine, read-out: K1 (in vitro receptor affinity). The method, then:
as §1

Data set [9] deals with α2-adrenergic. Description: In vitro receptor affinity, α2-adrenergic. Conditions: rat, radioligand [3H]-RX 821002; read-out: K1 (in vitro receptor affinity). It is filed as binding. The method, then:
as §1

Data set [10] concerns the target Histamine-H1 (Homo sapiens, UniProt P35367). Description: In vitro receptor affinity, Histamine-H1. It is filed as binding. Conditions: radioligand [3H]-pyrilamine, read-out: K1 (in vitro receptor affinity). As to the method:
as §1

Data set [11] has as its target Muscarine-M4 (Homo sapiens, UniProt P08173). Briefly: In vitro receptor affinity, Muscarine-M4. It is filed as binding. Conditions: radioligand [3H]-4-DAMP, read-out: K1 (in vitro receptor affinity). As to the method:
as §1

Data set [12] addresses Muscarine-M5 (Homo sapiens, UniProt P08912). Description: In vitro receptor affinity, Muscarine-M5. Conditions: radioligand [3H]-4-DAMP, read-out: K1 (in vitro receptor affinity). In kind it is binding. The method, then: as §1
Data set [13] has as its target μ-opiate (Rattus norvegicus, UniProt P33535). Briefly: In vitro receptor affinity, μ-opiate. In kind it is binding. Conditions: radioligand [3H]-DAMGO, read-out: K1 (in vitro receptor affinity). The method, then:
as §1

The target in data set [14] is T2, human 5-HT1A receptors (Homo sapiens, UniProt P08908).
T2 construct: expressed in transfected cells; host or cells: CHO
Description: In vitro functional agonism at 5-HT1A receptors, adenylate cyclase in CHO cell-lines. It is filed as cell-based. Conditions: CHO cell-lines expressing cloned receptor; read-out: Agonism human 5-HT1A receptors, pEC50 (converted). The method, then: (§2) In vitro (ant)agonistic activity at human D2 receptors and 5-HT1A receptors was measured according to the methods described by Solomon (1974) and Weiss (1985) respectively, on the formation of adenylate cyclase in CHO cell-lines expressing these cloned receptors.

Data set [15] has as its target T3, human D2 receptors (Homo sapiens, UniProt P14416).
T3 construct: expressed in transfected cells; host or cells: CHO
Briefly: In vitro functional antagonism at D2 receptors, adenylate cyclase in CHO cell-lines. It is filed as cell-based. Conditions: CHO cell-lines expressing cloned receptor; read-out: Antagonism human D2 receptors, pA2 (converted). As to the method:
as §2

Data set [16] relates to Lower lip retraction. Briefly: Lower lip retraction. It is filed as in vivo. Conditions: po; read-out: Lower Lip Retraction: ED50. The method, then: For oral (p.o.) administration: to the desired quantity (0.5-5 mg) of the solid test compound in a glass tube, some glass beads were added and the solid was milled by vortexing for 2 minutes. After addition of 1 ml of a solution of 1% methylcellulose in water and 2% (v/v) of Poloxamer 188 (Lutrol F68), the compound was suspended by vortexing for 10 minutes. The pH was adjusted to 7. Remaining particles in the suspension were further suspended by using an ultrasonic bath.
Lower lip retraction, an in vivo animal model for serotonin 5-HT1A receptor agonistic activity, was measured according to the method described by Berendsen (1989); Apomorphine-induced climbing behaviour in mice, an in vivo animal model for dopamine-D2 receptor antagonistic activity, was determined according to the method described by Costall (1978).

Data set [17] can be described thus: Volume of distribution measured in mice. In kind it is in vivo. Conditions: for VD in liters per kilograms: measured in mice; for Vd: plasma, calculated for an average person weighing 70 kg from mouse VD. The method, then: The volume of distribution (VD), also known as the ‘apparent volume of distribution’, is a pharmacological term used to quantify the distribution of a drug throughout the body after oral or parenteral dosing. It is defined as the volume in which the amount of drug would need to be uniformly distributed in to produce the observed concentration (Widmark, 1919).
The volume of distribution of SLV313 and its pyridine N-oxide was measured in mice, using the standard procedure well known in the art:
The volume of distribution is not a physiological volume, but rather the ratio between the total amount of drug in the body and its concentration in plasma. It is generally accepted that the volume of distribution is more or less the same across species, making it a parameter that, when measured in laboratory animals, has a high predictive value towards man.

Data set [18] in a line: Partition coefficient, experimental (Log P). Conditions: at pH 7.0. It is filed as physicochemical.

As usually defined, the ED50 is the dose at which the effect has come halfway, by size or by number of responders. In general, Vd refers to a proportionality between amount in the body and measured concentration, not a real space. Broadly, the logP is the decadic logarithm of the partition coefficient of the neutral form, usually between octanol and water. Low readings indicate a more hydrophilic compound, high ones a more lipophilic compound.

Sequence of 5-HT reuptake (P31645 whole entry): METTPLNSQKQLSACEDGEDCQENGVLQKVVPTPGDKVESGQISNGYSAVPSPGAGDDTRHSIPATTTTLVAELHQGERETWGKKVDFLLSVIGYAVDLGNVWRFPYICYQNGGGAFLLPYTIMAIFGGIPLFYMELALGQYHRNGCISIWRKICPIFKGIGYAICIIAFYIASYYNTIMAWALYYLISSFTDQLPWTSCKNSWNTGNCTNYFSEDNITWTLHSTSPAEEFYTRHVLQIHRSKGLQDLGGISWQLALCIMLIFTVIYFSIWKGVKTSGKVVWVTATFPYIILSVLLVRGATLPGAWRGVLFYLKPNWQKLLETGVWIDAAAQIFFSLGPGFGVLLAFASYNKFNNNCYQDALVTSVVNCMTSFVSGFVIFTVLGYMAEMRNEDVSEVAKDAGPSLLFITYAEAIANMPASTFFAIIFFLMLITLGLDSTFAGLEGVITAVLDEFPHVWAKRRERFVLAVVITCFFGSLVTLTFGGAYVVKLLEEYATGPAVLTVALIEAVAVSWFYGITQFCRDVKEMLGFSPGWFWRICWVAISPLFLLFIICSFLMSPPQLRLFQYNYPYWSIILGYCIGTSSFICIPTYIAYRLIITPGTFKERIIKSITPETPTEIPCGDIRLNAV
T3 sequence (P14416 whole entry): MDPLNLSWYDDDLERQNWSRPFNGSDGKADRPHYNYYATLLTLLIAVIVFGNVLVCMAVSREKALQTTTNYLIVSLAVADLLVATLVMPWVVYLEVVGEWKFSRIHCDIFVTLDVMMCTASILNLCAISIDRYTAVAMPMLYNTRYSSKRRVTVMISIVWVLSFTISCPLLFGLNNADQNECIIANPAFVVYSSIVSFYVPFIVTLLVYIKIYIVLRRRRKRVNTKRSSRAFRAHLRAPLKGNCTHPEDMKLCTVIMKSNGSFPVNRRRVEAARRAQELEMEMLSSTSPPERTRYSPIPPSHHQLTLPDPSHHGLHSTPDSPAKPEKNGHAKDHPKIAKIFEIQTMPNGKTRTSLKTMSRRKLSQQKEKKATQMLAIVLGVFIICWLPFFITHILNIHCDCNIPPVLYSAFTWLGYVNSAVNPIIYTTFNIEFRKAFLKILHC
Sequence of Serotonin-5-HT2C (P28335 33-458): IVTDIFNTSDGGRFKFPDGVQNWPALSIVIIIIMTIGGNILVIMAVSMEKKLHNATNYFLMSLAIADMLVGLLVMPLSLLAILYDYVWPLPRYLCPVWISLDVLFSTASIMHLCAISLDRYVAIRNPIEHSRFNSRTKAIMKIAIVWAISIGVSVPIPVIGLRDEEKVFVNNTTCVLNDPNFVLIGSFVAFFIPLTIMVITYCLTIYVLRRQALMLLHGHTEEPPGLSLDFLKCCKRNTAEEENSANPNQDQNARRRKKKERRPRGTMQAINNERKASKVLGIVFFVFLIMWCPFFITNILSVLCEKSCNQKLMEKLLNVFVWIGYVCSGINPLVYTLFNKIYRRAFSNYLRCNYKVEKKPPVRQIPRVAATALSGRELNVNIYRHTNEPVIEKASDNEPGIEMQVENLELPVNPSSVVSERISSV
Sequence of Dopamine-D1 (P21728 whole entry): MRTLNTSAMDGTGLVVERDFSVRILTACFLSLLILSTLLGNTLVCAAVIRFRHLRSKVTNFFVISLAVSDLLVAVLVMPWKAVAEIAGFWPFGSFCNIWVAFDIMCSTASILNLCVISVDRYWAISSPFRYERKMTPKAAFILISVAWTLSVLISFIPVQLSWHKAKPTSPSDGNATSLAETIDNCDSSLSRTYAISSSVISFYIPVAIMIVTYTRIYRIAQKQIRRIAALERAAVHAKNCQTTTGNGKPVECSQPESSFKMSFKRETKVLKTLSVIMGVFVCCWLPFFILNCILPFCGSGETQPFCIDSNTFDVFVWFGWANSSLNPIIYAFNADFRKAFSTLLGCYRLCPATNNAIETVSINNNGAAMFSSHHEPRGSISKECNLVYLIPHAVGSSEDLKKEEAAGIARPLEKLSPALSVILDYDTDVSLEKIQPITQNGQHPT
Sequence of Histamine-H1 (P35367 whole entry): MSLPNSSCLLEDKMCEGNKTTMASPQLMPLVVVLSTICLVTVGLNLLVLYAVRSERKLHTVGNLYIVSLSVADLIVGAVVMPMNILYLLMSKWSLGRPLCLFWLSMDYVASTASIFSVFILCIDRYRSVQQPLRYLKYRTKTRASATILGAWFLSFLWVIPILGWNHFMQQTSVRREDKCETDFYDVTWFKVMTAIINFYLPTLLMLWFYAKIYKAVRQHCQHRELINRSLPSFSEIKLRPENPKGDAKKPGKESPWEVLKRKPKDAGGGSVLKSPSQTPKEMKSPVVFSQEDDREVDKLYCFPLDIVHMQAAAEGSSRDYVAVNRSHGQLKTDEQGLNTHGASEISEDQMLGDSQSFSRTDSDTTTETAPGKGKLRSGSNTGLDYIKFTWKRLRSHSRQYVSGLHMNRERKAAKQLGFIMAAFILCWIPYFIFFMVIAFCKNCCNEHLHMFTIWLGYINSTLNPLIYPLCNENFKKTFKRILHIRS
Sequence of Serotonin-5-HT6 (P50406 whole entry): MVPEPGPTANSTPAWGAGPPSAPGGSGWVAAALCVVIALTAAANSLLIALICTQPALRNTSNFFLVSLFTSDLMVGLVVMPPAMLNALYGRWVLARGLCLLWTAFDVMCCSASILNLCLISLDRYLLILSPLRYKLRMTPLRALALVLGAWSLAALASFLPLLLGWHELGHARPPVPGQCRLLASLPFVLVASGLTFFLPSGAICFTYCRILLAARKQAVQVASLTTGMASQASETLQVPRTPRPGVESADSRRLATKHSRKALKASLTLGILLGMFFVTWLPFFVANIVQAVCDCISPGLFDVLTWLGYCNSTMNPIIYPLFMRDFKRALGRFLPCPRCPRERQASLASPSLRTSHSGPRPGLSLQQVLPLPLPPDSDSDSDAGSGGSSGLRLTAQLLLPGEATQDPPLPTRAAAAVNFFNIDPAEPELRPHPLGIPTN
Sequence of Serotonin-5-HT4 (Q13639 whole entry): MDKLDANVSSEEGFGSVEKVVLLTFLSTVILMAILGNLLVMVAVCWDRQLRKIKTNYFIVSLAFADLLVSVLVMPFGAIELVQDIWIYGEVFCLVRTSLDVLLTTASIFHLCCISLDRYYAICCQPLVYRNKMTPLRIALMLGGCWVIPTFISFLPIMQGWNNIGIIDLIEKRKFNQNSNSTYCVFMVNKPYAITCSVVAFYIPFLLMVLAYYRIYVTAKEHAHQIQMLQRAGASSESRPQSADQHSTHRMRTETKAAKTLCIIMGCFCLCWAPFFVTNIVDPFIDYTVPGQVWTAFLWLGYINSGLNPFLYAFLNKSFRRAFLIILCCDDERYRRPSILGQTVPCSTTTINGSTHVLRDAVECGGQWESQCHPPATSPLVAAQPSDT
Sequence of μ-opiate (P33535 whole entry): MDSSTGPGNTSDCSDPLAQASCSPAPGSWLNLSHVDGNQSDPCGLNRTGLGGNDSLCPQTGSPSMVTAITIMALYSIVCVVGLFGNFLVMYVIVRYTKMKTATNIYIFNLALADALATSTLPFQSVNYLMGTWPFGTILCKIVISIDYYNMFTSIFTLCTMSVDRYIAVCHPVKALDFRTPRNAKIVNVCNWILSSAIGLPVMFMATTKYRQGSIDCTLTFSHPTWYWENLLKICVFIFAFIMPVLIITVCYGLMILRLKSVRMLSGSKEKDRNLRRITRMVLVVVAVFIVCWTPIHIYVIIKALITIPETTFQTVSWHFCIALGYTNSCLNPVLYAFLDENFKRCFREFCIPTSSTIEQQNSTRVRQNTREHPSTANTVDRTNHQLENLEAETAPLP
Sequence of Serotonin-5-HT2A (P28223 whole entry): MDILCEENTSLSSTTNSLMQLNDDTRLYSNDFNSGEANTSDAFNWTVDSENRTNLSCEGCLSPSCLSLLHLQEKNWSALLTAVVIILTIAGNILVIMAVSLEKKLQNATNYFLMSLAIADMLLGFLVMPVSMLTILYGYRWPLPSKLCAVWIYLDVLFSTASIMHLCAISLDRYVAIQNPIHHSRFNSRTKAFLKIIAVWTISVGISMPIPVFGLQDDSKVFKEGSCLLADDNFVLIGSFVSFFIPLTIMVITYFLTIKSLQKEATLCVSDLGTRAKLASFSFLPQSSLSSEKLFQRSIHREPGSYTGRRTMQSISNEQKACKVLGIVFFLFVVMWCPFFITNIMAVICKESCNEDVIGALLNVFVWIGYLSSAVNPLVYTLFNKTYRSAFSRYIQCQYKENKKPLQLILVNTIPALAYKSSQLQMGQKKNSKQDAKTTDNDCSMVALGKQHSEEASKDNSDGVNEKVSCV
Sequence of Muscarine-M4 (P08173 whole entry): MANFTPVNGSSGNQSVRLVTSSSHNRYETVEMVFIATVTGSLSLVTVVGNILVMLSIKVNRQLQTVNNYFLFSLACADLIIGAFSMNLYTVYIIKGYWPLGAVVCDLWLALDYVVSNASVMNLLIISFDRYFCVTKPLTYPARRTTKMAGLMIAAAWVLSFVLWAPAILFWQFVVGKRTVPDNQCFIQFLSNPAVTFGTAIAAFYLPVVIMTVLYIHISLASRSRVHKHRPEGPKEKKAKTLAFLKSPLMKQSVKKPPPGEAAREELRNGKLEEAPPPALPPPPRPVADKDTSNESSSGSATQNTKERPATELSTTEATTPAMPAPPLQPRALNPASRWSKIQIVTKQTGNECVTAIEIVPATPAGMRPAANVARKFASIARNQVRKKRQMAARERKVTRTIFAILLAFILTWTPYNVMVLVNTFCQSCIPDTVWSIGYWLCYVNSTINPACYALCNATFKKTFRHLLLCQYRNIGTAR

Regarding `[O-][n+]1cc(CN2CCN(c3cccc4c3OCCO4)CC2)cc(-c2ccc(F)cc2)c1` [pyridine N-oxide, 1-(2,3-dihydro-1,4-benzodioxin-5-yl)-4-[[5-(4-fluorophenyl)-1-oxido-3-pyridinyl]methyl]-piperazine], the Ki in data set [1] is more than 10 µM; in [2], 0.4 nM; in data set [3], 500 nM; in data set [4], more than 10 µM; in data set [5], more than 10 µM; in [6], more than 10 µM. For the same compound, the Ki was more than 10 µM in [7]; 320 nM in data set [8]; 630 nM in data set [9]; more than 10 µM in data set [10]; more than 10 µM in data set [11]; more than 10 µM in data set [12]. Moreover, in [13], the Ki was found to be 3.2 µM. The EC50 in [14] is 1.58 nM. Further, the Kb in data set [15] was 0.631 nM. Besides, the ED50 in data set [16] is 3 mg/kg. In data set [17], the “VD in liters per kilograms” value was 1 liters per kilograms. In addition, in data set [17], the Vd is 70 L. For the same compound, in data set [18], the logP was determined as 2.6.
With `Fc1ccc(-c2cncc(CN3CCN(c4cccc5c4OCCO5)CC3)c2)cc1` [SLV313, 3-[[4-(2,3-dihydro-1,4-benzodioxin-5-yl)-1-piperazinyl]methyl]-5-(4-fluorophenyl)pyridine, reference compound], the Ki was more than 10 µM in data set [1]; 0.8 nM in [2]; 250 nM in data set [3]; more than 1 µM in data set [4]; more than 1 µM in data set [5]; more than 1 µM in data set [6]. Besides, the Ki was more than 1 µM in [7]; more than 1000 nM in data set [8]; more than 1000 nM in [9]; more than 1 µM in data set [10]; more than 1 µM in [11]; more than 1 µM in data set [12]. For the same compound, in data set [13], the Ki amounted to 8 µM. The EC50 in data set [14] was 1.26 nM. For the same compound, the Kb in data set [15] was 0.501 nM. In addition, the ED50 in data set [16] is 2.3 mg/kg. Moreover, in [17], the “VD in liters per kilograms” value is reported as 5 liters per kilograms. Also, the Vd in data set [17] was 350 L. In data set [18], this compound yielded a logP of 3.6.
